# Laboratory results: US20170112873A1, “Method and Topical Composition for the Treatment of Rosacea and Skin Erythema Using Selenium Sulfide” (priority 2015, published 2017)
# Tested on: facial Rosacea
# Assay: clinical type observations of topical application in facial Rosacea
# Type: in vivo
smiles,measurement,setting,value
S=[Se]=S [selenium sulfide],"redness, small dilated blood vessels and small red bumps characterizing the facial Rosacea",clinical type observations,observed to be decreased
same,effectiveness in facial Rosacea,fluid form selenium sulfide of 1% strength,Effective in most instances
same,"redness, flushing and inflammation associated with facial Rosacea and skin erythema","topical application, clinical type observations",effective in significantly reducing
